Measurements reported in publication PMC11225352, “A multicenter, randomized, double-blind, placebo-controlled ascending dose study to evaluate the safety, tolerability, pharmacokinetics (PK) and pharmacodynamic (PD) effects of Posiphen in subjects with early Alzheimer’s Disease” (Alzheimer's Research & Therapy, 2024).
Marks after values point to notes of the source that are not given here.

Columns and labels:
[1] = Plasma pharmacokinetics of Posiphen and its N1 and N8 metabolites (LC-MS, non-compartmental); type: in vivo, human; conditions: for AUC0 − 24 in plasma, dose proportionality: between once daily and twice daily dosing; for mean levels averaged over 24 h of CSF sampling / AUC0 − 24 / Cmax / Tmax: plasma; for mean levels averaged over 24 h of CSF sampling: after 21–23 days, early AD
Source text: (§1) For the confinement visit, subjects arrived in the early morning after an overnight fast. Physical and neurological examination, vital signs, and assessment of compliance were completed and blood was drawn for safety laboratory tests. An intravenous line and a second line for repeated blood draw were placed. To sample CSF, the intrathecal space was accessed using a Perifix 18G Touhy Epidural Needle (90 mm), and a Polyamide Epidural Catheter (20G Closed Tip) was inserted and fixed in place by an Anesthesiologist. Participants received the last day’s dosing of study drug or placebo. Initial blood and CSF samples were drawn, intravenous infusion of ^13C6-leucine was started and continued for 9 h, during which time subjects received a low leucine diet. Blood and CSF were sampled every 2 h for 36 h. After 36 h, intravenous lines and the CSF catheter were removed, vital signs were measured, physical exam performed, and blood and CSF were sent for routine laboratory studies. […] If postural headache was present, a blood patch was performed. Once stable, participants underwent a brief exam and vital sign check and were discharged. They received a phone call 24 h after discharge to check on their wellbeing.
(§2) For biochemical analysis to derive data for SILK, ^13C6-leucine was analyzed in plasma and CSF by mass spectrometry, and Aβ peptides in CSF were analyzed by immunoprecipitation-mass spectrometry (IP-MS) as previously described, by C2N Diagnostics (St Louis, MO). CSF levels of sAPPα, sAPPβ, Aβ38, 40 and 42 were analyzed by the ADCS Biomarker Core using Mesoscale Discovery (MSD) electrochemiluminescent assays (Mesoscale Discovery, Rockville, MD). Levels of Posiphen and its N1 and N8 metabolites in plasma and CSF were measured by Charles River Laboratories (Montreal, CA) by high-performance liquid chromatographic mass spectrometry, with use of deuterated Posiphen (procured by Charles River Laboratories) as an internal standard.
(§3) A prespecified Statistical Analysis Plan (SAP) was prepared and finalized before the database lock occurred. For safety and tolerability, frequencies of adverse events, serious adverse events and laboratory abnormalities between the participants across the three groups are compared, using Pearson’s χ [2] or ANOVA, as appropriate. Plasma concentration-time data are analyzed by non-compartmental methods using WinNonlin version 6.2.1 or greater. Calculations are based on the actual sampling times recorded during the study. For PK analysis, only the subjects receiving Posiphen are included.
(§4) Noncompartmental pharmacokinetic parameters were estimated using Phoenix WinNonlin v8.3 (Certara, Princeton, NJ). Levels and parameters (Cmax, AUC) of posiphen, n-1 and n-8 metabolites were highly correlated in plasma and CSF. For the BID and TID doses the expected post dose plasma peaks appeared attenuated.

[2] = CSF pharmacokinetics of Posiphen and its N1 and N8 metabolites (lumbar catheter sampling, LC-MS); type: in vivo, human; conditions: for mean levels averaged over 24 h of CSF sampling: after 21–23 days, early AD
Source text: as §1, §2, §3, §4

[3] = test system: Aβ; design: method as in PMID 24828079; conditions: mice and cognitively normal humans (aged 18–50), single dose of 60 mg; cited from earlier work
[4] = 60 mg BID (n = 5), geometric mean (% geometric CV)
[5] = 60 mg BID (n = 5), median (min-max)
[6] = 60 mg daily (n = 4), geometric mean (% geometric CV)
[7] = 60 mg daily (n = 4), median (min-max)
[8] = 60 mg daily (n = 4; N1: only one participant measurable), geometric mean (% geometric CV)
[9] = 60 mg daily (n = 4; N1: only one participant measurable), median (min-max)

Row | SMILES | AUC0 − 24 in plasma, dose proportionality [1] | mean levels averaged over 24 h of CSF sampling ([1]; 60 mg BID (n = 5)) | AUC0 − 24 [1, 4] | Cmax [1, 4] | Tmax [1, 5] | AUC0 − 24 ([1]; 60 mg TID (n = 1)) | Cmax ([1]; 60 mg TID (n = 1)) | Tmax ([1]; 60 mg TID (n = 1)) | mean levels averaged over 24 h of CSF sampling ([1]; 60 mg TID (n = 1)) | AUC0 − 24 [1, 6] | Cmax [1, 6] | Tmax [1, 7] | mean levels averaged over 24 h of CSF sampling ([1]; 60 mg once daily (n = 5)) | mean levels averaged over 24 h of CSF sampling ([2]; 60 mg (n = 5)) | mean levels averaged over 24 h of CSF sampling ([2]; 60 mg BID (n = 5)) | AUC0 − 24 [2, 4] | Cmax [2, 4] | Tmax [2, 5] | mean levels averaged over 24 h of CSF sampling ([2]; 60 mg TID (n = 1)) | AUC0 − 24 [2, 8] | further results
1 | CN1c2ccc(OC(=O)Nc3ccccc3)cc2[C@]2(C)CCN[C@H]12 [N1] | increased approximately proportionally | 3.02 ± 1.40 ng/mL | 65.06 (58.61) hr*ng/mL | 6.96 (32.01) ng/mL | 12 (2–20) hr | 60.18 ng·h/mL | 5.48 ng/mL | 2 h | 2.51 ng/mL | 36.60 (19.24) hr*ng/mL | 5.43 (21.98) ng/mL | 2 (2–4) hr | 1.29 ± 0.77 ng/mL | 0.02 ± 0.04 ng/mL | 0.28 ± 0.30 ng/mL | 8.75 (83.50) hr*ng/mL | 0.90 (31.32) ng/mL | 12 (4–20) hr | 0.00 ng/mL | 1.33* hr*ng/mL | Cmax [2, 8]: 0.66* ng/mL; Tmax [2, 9]: 4* hr
2 | CN1CC[C@]2(C)c3cc(OC(=O)Nc4ccccc4)ccc3NC12 (stereo partly drawn) [N8] | increased approximately proportionally | 5.04 ± 1.80 ng/mL | 113.65 (44.01) hr*ng/mL | 10.01 (27.79) ng/mL | 12 (2–20) hr | 80.40 ng·h/mL | 5.41 ng/mL | 2 h | 3.35 ng/mL | 66.02 (20.83) hr*ng/mL | 6.81 (25.10) ng/mL | 3 (3–4) hr | 2.25 ± 1.36 ng/mL | 0.35 ± 0.26 ng/mL | 0.77 ± 0.43 ng/mL | 17.88 (58.47) hr*ng/mL | 1.41 (39.33) ng/mL | 12 (4–20) hr | 0.15 ng/mL | 8.91 (47.91) hr*ng/mL | AUC0 − 24 ([2]; 60 mg TID (n = 1)): 6.26 ng·h/mL; Cmax ([2]; 60 mg TID (n = 1)): 0.62 ng/mL; Tmax ([2]; 60 mg TID (n = 1)): 12 h; Cmax [2, 8]: 1.01 (14.14) ng/mL; Tmax [2, 9]: 4 (2–8) hr
3 | CN(C)CCCC1(c2ccc(F)cc2)OCc2cc(C#N)ccc21 (stereo not drawn) [citalopram] | – | – | – | – | – | – | – | – | – | – | – | – | – | – | – | – | – | – | – | – | Aβ production (SILK) [3]: decreased
